Key:
[1] = test system: miR-206; test: qPCR of exosomal miR-206 from dissociated tibialis anterior muscles; format: in vivo, mdx mice; details: TSA-treated mdx muscle compared to untreated control
Procedure: Exosomes were purified from tibialis anterior gently dissociated in serum-free DMEM (24 h). Cell debris and organelles were eliminated by centrifugation at 2,000 g for 20 min and exosomes were isolated using TEIR.
For microRNA validation, Total exosomal RNA was extracted with Total Exosome RNA Protein Isolation Kit (#4478545, Invitrogen by Thermo Fisher Scientific) and was retro-transcribed using the Qiagen reverse transcription kit (miScript II RT Kit, #218161, Qiagen) and pre-amplified using (miScript PreAMP PCR Kit, #331451, Qiagen).
All the conditions are provided in the manufacturer protocol.
(§1) Of note, transgenic miR-206 upregulation has been exploited as tool for the treatment of DMD and other muscular disorders (Liu et al., 2012; Williams et al., 2009; Fry et al., 2017). […] The same pattern could be observed in mdx mice, in which an abundant miR-206 signal was detected in the interstitium of tibialis anterior muscles, overlapping with the immunofluorescence staining of the FAP's marker Sca-1 (FIG. 3H). […] We performed a quantitative assessment of exosomal miR-206, by isolating whole tibialis anterior (TA) muscles from TSA-treated mdx muscle or untreated control mdx mice, followed by gentle dissociation and exosome isolation.

[2] = test system: miR-206; test: miR-206 in situ hybridization of tibialis anterior sections; format: in vivo; details: young mdx mice (1.5 months of age)
Procedure: Animals were used at the specified age and treated for the indicated periods with daily intra peritoneal injections of Trichostatin A, TSA (0.6 mg/kg/day; #T8552, Sigma), dissolved in phospate-saline solution or in phospate-saline alone as vehicle control (CTR). Muscle injury was performed by intramuscular injection in Tibliais Anterior (TA) of Cardiotoxin—CTX− (10 μM, 10 mg/mL) (#L8102, Lotaxan Valence, France, http://www.latoxan.com), 3 days before mice sacrifice. […]
as §1

[3] = test system: mdx mice; details: young vs old mdx mice; Mozzetta et al. 2013, Saccone et al. 2014; cited from earlier work
[4] = test system: Notch3; test: Notch3 transcripts in MuSCs isolated from treated mdx mice; format: in vivo; details: MuSCs isolated from mdx mice treated with TSA
Procedure: (§2) Animals were used at the specified age and treated for the indicated periods with daily intra peritoneal injections of Trichostatin A, TSA (0.6 mg/kg/day; #T8552, Sigma), dissolved in phospate-saline solution or in phospate-saline alone as vehicle control (CTR). Muscle injury was performed by intramuscular injection in Tibliais Anterior (TA) of Cardiotoxin—CTX− (10 μM, 10 mg/mL) (#L8102, Lotaxan Valence, France, http://www.latoxan.com), 3 days before mice sacrifice.
(§3) For RNA-sequencing sample preparation, MuSCs and FAPs were freshly isolated by FACS from 6 C57BI6 mdx male mice 8-weeks old treated or not with TSA for 15 days. RNA was collected using Trizol) reagent (#T9424, Sigma). About 100 ng/μL of total RNA was sent in duplicate to IGA (Istituto di Genomica Applicata, Udine) for RNA sequencing using Illumina TruSeq Stranded Total RNA kit Ribo-Zero GOLD on Illumina Hiseq2500 platform.
(§4) To investigate this hypothesis, we evaluated the effect of FAP-derived exosomes from HDACi-treated or control-treated mdx mice on MuSCs within single fibres isolated from WT mice. Freshly isolated single muscle fibres from tibialis anterior, extensor digitorum longus, gastrocnemius and soleus of C57BL6J mice were incubated with FAP-derived exosomes or whole conditioned media, and their effect on MuSCs was evaluated by monitoring the expression of Pax7, MyoD and DNA synthesis (EdU incorporation). […]

[5] = test system: Notch1; test: Notch1 transcripts in MuSCs isolated from treated mdx mice; format: in vivo; details: MuSCs isolated from mdx mice treated with TSA
Procedure: as §2, §3, §4

For `CC(/C=C/C(=O)NO)=C\[C@@H](C)C(=O)c1ccc(N(C)C)cc1` [TSA, Trichostatin A], the “increase of miR-206” value [1] is given as roughly 7 fold, the “amount of interstitial miR-206 signal associated with Sca-1 staining” value [2] is given as “increased” and the regeneration [3] is given as “promotes regeneration in young, but not old”. The Notch3 transcripts [4] was “reduced” and the Notch1 transcripts [5] was “reduced”.
